Laboratory results taken from US12344597B2, “Alkoxy-substituted pyridinyl derivatives as LPA1 receptor antagonists and their use in the treatment of fibrosis” (IDORSIA PHARMACEUTICALS LTD, priority 2018, dated 2025).

Each compound was assayed against human LPA1 receptor (Homo sapiens (Human), UniProt Q92633) (assay: Beta-arrestin recruitment assay to determine IC50 values for human LPAR1). Conditions: antagonist mode, Tango EDG2-bla U2OS cells, LPA 18:1 500 nM final.
Assay type: cell-based
Method in brief: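 Antagonist IC50 = concentration giving 50% inhibition of maximal LPA response. Read-out is beta-lactamase reporter activity after arrestin-protease recruitment in U2OS cells bearing LPA1-TEV-Gal4-VP16 construct; cells pre-incubated 20 h, 37 °C, 5% CO2.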

Sequence of human LPA1 receptor (Q92633 whole entry): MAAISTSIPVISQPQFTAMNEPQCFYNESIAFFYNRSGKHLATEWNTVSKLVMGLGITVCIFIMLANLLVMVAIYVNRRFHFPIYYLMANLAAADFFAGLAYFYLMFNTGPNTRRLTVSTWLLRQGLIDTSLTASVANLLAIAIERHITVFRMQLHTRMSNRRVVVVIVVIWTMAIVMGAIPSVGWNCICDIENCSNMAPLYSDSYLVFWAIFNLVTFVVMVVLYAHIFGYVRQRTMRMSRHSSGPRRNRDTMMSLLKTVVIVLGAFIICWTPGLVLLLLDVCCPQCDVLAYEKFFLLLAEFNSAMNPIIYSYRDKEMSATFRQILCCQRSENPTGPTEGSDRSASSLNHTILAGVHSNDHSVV

| Compound | IC50 |
| --- | --- |
| Cc1ccc(NC(=O)C2(c3ccccc3C(C)C)CN(Cc3cc(C(=O)O)no3)C2)c(OC(F)F)n1 [Ex 11-35, 5-((3-((2-(difluoromethoxy)-6-methylpyridin-3-yl)carbamoyl)-3-(2-isopropylphenyl)azetidin-1-yl)methyl)isoxazole-3-carboxylic acid] | 43 nM |
| Cc1ccc(NC(=O)C2(c3ccccc3C(C)C)CN(C(=O)[C@@H]3C[C@@H]3C(=O)O)C2)c(OC(F)F)n1 [Ex 12-95, (1S,2R)-2-(3-((2-(difluoromethoxy)-6-methylpyridin-3-yl)carbamoyl)-3-(2-isopropylphenyl)azetidine-1-carbonyl)cyclopropane-1-carboxylic acid] | 14 nM |
| Cc1ccc(NC(=O)C2(c3ncccc3C(C)C)CN(C(=O)NC3CC3)C2)c(OC(F)F)n1 [Ex 63, N1-cyclopropyl-N3-(2-(difluoromethoxy)-6-methylpyridin-3-yl)-3-(3-isopropylpyridin-2-yl)azetidine-1,3-dicarboxamide] | 8 nM |
| Cc1ccc(NC(=O)C2(c3ccccc3C(C)C)CN(C(=O)CNCC(C)(C)C(=O)O)C2)c(OC(F)F)n1 [Ex 45, 3-((2-(3-((2-(difluoromethoxy)-6-methylpyridin-3-yl)carbamoyl)-3-(2-isopropylphenyl)azetidin-1-yl)-2-oxoethyl)amino)-2,2-dimethylpropanoic acid] | 63 nM |
| Cc1ccc(NC(=O)C2(c3ccccc3C(C)C)CCN(C(=O)Cn3nccn3)CC2)c(OC(F)F)n1 [Ex 12-22, 1-(2-(2H-1,2,3-triazol-2-yl)acetyl)-N-(2-(difluoromethoxy)-6-methylpyridin-3-yl)-4-(2-isopropylphenyl)piperidine-4-carboxamide] | 7 nM |
| Cc1ccc(NC(=O)C2(c3ccccc3C(C)C)CN(C(=O)CCOCC(=O)O)C2)c(OC(F)F)n1 [Ex 12-110, 2-(3-(3-((2-(difluoromethoxy)-6-methylpyridin-3-yl)carbamoyl)-3-(2-isopropylphenyl)azetidin-1-yl)-3-oxopropoxy)acetic acid] | 66 nM |
| Cc1ccc(NC(=O)C2(c3ccccc3C(C)C)CN(C(=O)CC3CCNCC3)C2)c(OC(F)F)n1 [Ex 12-138, N-(2-(difluoromethoxy)-6-methylpyridin-3-yl)-3-(2-isopropylphenyl)-1-(2-(piperidin-4-yl)acetyl)azetidine-3-carboxamide] | 43 nM |
| CCOC(=O)Cc1coc(CN2CC(C(=O)Nc3ccc(C)nc3OC(F)F)(c3ccccc3C(C)C)C2)n1 [Ex 11-58, ethyl 2-(2-((3-((2-(difluoromethoxy)-6-methylpyridin-3-yl)carbamoyl)-3-(2-isopropylphenyl)azetidin-1-yl)methyl)oxazol-4-yl)acetate] | 68 nM |
| Cc1ccc(NC(=O)C2(c3ccccc3C(C)C)CN(CCCC(C)(C)C#N)C2)c(OC(F)F)n1 [Ex 11-60, 1-(4-cyano-4-methylpentyl)-N-(2-(difluoromethoxy)-6-methylpyridin-3-yl)-3-(2-isopropylphenyl)azetidine-3-carboxamide] | 47 nM |
| Cc1ccc(NC(=O)C2(c3ccccc3C(C)C)CN(CC(=O)O)C2)c(OC(F)F)n1 [Ex 11-12, 2-(3-((2-(difluoromethoxy)-6-methylpyridin-3-yl)carbamoyl)-3-(2-isopropylphenyl)azetidin-1-yl)acetic acid] | 22 nM |
| Cc1ccc(NC(=O)C2(c3ccccc3C(C)C)CN(C(=O)C[C@@](C)(O)C(=O)O)C2)c(OC(F)F)n1 [Ex 12-116, (R)-4-(3-((2-(difluoromethoxy)-6-methylpyridin-3-yl)carbamoyl)-3-(2-isopropylphenyl)azetidin-1-yl)-2-hydroxy-2-methyl-4-oxobutanoic acid] | 63 nM |
| Cc1ccc(NC(=O)C2(c3ccccc3C(C)C)CN(C(=O)C[C@H]3COCCN3)C2)c(OC(F)F)n1 [Ex 12-44, (S)-N-(2-(difluoromethoxy)-6-methylpyridin-3-yl)-3-(2-isopropylphenyl)-1-(2-(morpholin-3-yl)acetyl)azetidine-3-carboxamide] | 79 nM |
| Cc1ccc(NC(=O)C2(c3ccccc3C(C)C)CCN(C(=O)CN(CCO)C(=O)OC(C)(C)C)CC2)c(OC(F)F)n1 [Ex 12-49, tert-butyl (2-(4-((2-(difluoromethoxy)-6-methylpyridin-3-yl)carbamoyl)-4-(2-isopropylphenyl)piperidin-1-yl)-2-oxoethyl)(2-hydroxyethyl)carbamate] | 30 nM |
| Cc1ccc(NC(=O)C2(c3cc(F)ccc3C(C)C)CNC2)c(OC(F)F)n1 [Ex 37, N-(2-(difluoromethoxy)-6-methylpyridin-3-yl)-3-(5-fluoro-2-isopropylphenyl)azetidine-3-carboxamide] | 112 nM |
| COCCN1CCC(CC(=O)N2CC(C(=O)Nc3ccc(C)nc3OC(F)F)(c3ccccc3C(C)C)C2)CC1 [Ex 12-139, N-(2-(difluoromethoxy)-6-methylpyridin-3-yl)-3-(2-isopropylphenyl)-1-(2-(1-(2-methoxyethyl)piperidin-4-yl)acetyl)azetidine-3-carboxamide] | 165 nM |

Next, values leading:

| IC50 | Compound |
| --- | --- |
| 15 nM | Cc1ccc(C(C)C)c(C2(C(=O)Nc3ccc(C)nc3OC(F)F)CN(C(=O)CC(C)(C)C(=O)O)C2)c1 [Ex 39-2, 4-(3-((2-(difluoromethoxy)-6-methylpyridin-3-yl)carbamoyl)-3-(2-isopropyl-5-methylphenyl)azetidin-1-yl)-2,2-dimethyl-4-oxobutanoic acid] |
| 50 nM | COc1nc(C)ccc1NC(=O)C1(c2ccccc2C(C)C)CN(S(N)(=O)=O)C1 [Ex 15-16, 3-(2-isopropylphenyl)-N-(2-methoxy-6-methylpyridin-3-yl)-1-sulfamoylazetidine-3-carboxamide] |
| 3 nM | Cc1ccc(NC(=O)C2(c3ccccc3C(C)C)CN(c3ncc(F)cn3)C2)c(OC(F)F)n1 [Ex 18-33, N-(2-(difluoromethoxy)-6-methylpyridin-3-yl)-1-(5-fluoropyrimidin-2-yl)-3-(2-isopropylphenyl)azetidine-3-carboxamide] |
| 3 nM | CC(C)c1ccccc1C1(C(=O)Nc2ncc(Cl)cc2OC(F)F)CN(C(=O)NC2CC2)C1 [Ex 82-1, N3-(5-chloro-3-(difluoromethoxy)pyridin-2-yl)-N1-cyclopropyl-3-(2-isopropylphenyl)azetidine-1,3-dicarboxamide] |
| 34 nM | Cc1ccc(NC(=O)C2(c3ccccc3C(C)C)CN(c3ncc(C(=O)O)o3)C2)c(OC(F)F)n1 [Ex 18-32, 2-(3-((2-(difluoromethoxy)-6-methylpyridin-3-yl)carbamoyl)-3-(2-isopropylphenyl)azetidin-1-yl)oxazole-5-carboxylic acid] |
| 127 nM | COC(=O)C1(COC(=O)N2CC(C(=O)Nc3ccc(C)nc3OC(F)F)(c3ccccc3C(C)C)C2)CC1 [Ex 14-11, (1-(methoxycarbonyl)cyclopropyl)methyl 3-((2-(difluoromethoxy)-6-methylpyridin-3-yl)carbamoyl)-3-(2-isopropylphenyl)azetidine-1-carboxylate] |
| 88 nM | Cc1cnc(NC(=O)C2(c3ccccc3C(C)C)CN(C(=O)OCC(=O)O)C2)c(OC(F)F)c1 [Ex 83-2, 2-((3-((3-(difluoromethoxy)-5-methylpyridin-2-yl)carbamoyl)-3-(2-isopropylphenyl)azetidine-1-carbonyl)oxy)acetic acid] |
